Literature values as cited in patent EP3865125A1, “PHARMACEUTICAL COMPOSITION COMPRISING ELIGLUSTAT” (Kashiv Biosciences, LLC, priority 2020, dated 2021).
Read-outs that look alike come from different tables or passages of the source.

Experiments:
[1] = rats, 50-mg/kg dose
[2] = dogs, 50-mg/kg dose
[3] = mice, 50-mg/kg dose
[4] = not given; remark: listed apart in the source

SMILES: CCCCCCCC(=O)N[C@H](CN1CCCC1)[C@H](O)c1ccc2c(c1)OCCO2 [Eliglustat]
- oral bioavailability [1]: 39%
- oral bioavailability [2]: 42%
- oral bioavailability [3]: 8%
- absolute bioavailability (CERDELGA capsule, CHMP assessment report): 4.49% ± 4.13%
- systemic exposure AUC0-12 at steady state compared to after the first dose (AUC0-inf) (multiple oral doses of 84 mg twice daily in EMs): up to 2 fold
- oral bioavailability (oral route, significant first pass metabolism): less than 5%
- solubility [4]: high solubility
